From patent US20200405659A1, “COMPOSITION CONTAINING 2,3-BUTANEDIOL AS ACTIVE INGREDIENT” (GS CALTEX CORPORATION, priority 2018, published 2020)

Columns and labels:
[1] = DPPH free radical elimination activity (anti-oxidation ratio); conditions: for change of anti-oxidation ratio with the increase of the concentration: from 0.1 wt % to 1 wt %
Protocol: To evaluate the anti-oxidative effects of 2,3-butanediol, the elimination activity of free radicals was measured using a 2,2-diphenyl-1-picrylhydrazyl (DPPH) analysis method. Particularly, an anti-oxidation ratio was calculated by Equation 2 below.
Anti-oxidation ratio (%)=[[(absorbance of specimen treated group−absorbance of specimen untreated group)/(absorbance of negative control group−absorbance of specimen untreated group)]×100 [Equation 2]
i) specimen untreated group: group allowing reaction of ultrapure water and methanol
ii) specimen treated group: group allowing reaction of specimen by each concentration and DPPH
iii) negative control group: group allowing reaction of ultrapure water and DPPH
According to the concentration shown in Table 2 below, diols were diluted with a methanol solvent to prepare specimens, and each specimen was reacted with DPPH, and absorbance was measured, and the anti-oxidation ratios calculated are shown in Table 2 below.

collagenase (MMP-1) = test: Collagenase (MMP-1) content in CCD-986SK cells (Human MMP-1 ELISA kit); format: cell-based; conditions: for Collagenase (MMP-1)(pg/mL) / MMP-1 content relative to untreated control (%): 48 hours; for MMP-1 content relative to untreated control (%): specimen-free = 100.00, decreased percent means collagenase restrained; for restraining effects of collagenase: compared with the Comparative Examples using 1,3-butanediol or 1,3-propanediol
Protocol: The anti-wrinkle effects of 2,3-butanediol were evaluated as the restraining effects of the decomposition of interstitial collagen, etc., by decreasing skin collagenase (for example, MMP-1).
To evaluate the anti-wrinkle effects of 2,3-butanediol, serum-free mediums composed of 99 mL of Dulbecco's modified eagle medium (Gibco) and 1 mL of Penicillin-streptomycin (Gibco), diluted with 2R,3S-butanediol, 2R,3R-butanediol, 1,3-butanediol and 1,3-propanediol in the concentrations shown in Table 3 below, were prepared.
In addition, cells CCD-986SK (ACTT CRL-6323™) were seeded in well plates by 1 mL with 5×10^4, and cultivated at 37° C. in a 5% CO2 cultivator for 24 hours. The cultivated cells were replaced with the mediums of the Examples and Comparative Examples and cultivated at 37° C. in a 5% CO2 cultivator for 48 hours.
A cell dissolution material was recovered, the protein content was measured using BSA protein assay reagent kit (Thermo scientific PIERCE, USA), the collagenase (MMP-1) content was measured suing Human MMP-1 ELISA kit (Sigma), and the results are shown in Table 4 below.
That is, the decreased percent calculated means that collagenase is effectively restrained.

CC(O)CCO (stereo not shown) [1,3-butanediol]
Anti-oxidation ratio (%) ([1]; 0.1 wt % in methanol): 2.89%
Anti-oxidation ratio (%) ([1]; 0.5 wt % in methanol): 1.46%
Anti-oxidation ratio (%) ([1]; 1.0 wt % in methanol): 1.00%
change of anti-oxidation ratio with the increase of the concentration [1]: rather decreased
Collagenase (MMP-1)(pg/mL) (collagenase (MMP-1); 0.50 wt % in serum-free medium): 569.1 pg/mL
MMP-1 content relative to untreated control (%) (collagenase (MMP-1); 0.50 wt %): 90.82%

OCCCO [1,3-propanediol]
Anti-oxidation ratio (%) ([1]; 0.1 wt % in methanol): 5.34%
Anti-oxidation ratio (%) ([1]; 0.5 wt % in methanol): 2.17%
Anti-oxidation ratio (%) ([1]; 1.0 wt % in methanol): −1.23%
change of anti-oxidation ratio with the increase of the concentration [1]: rather decreased
Collagenase (MMP-1)(pg/mL) (collagenase (MMP-1); 0.50 wt % in serum-free medium): 602.9 pg/mL
MMP-1 content relative to untreated control (%) (collagenase (MMP-1); 0.50 wt %): 94.23%

C[C@@H](O)[C@@H](C)O [2R,3R-butanediol]
Collagenase (MMP-1)(pg/mL) (collagenase (MMP-1); 0.05 wt % in serum-free medium): 390.9 pg/mL
MMP-1 content relative to untreated control (%) (collagenase (MMP-1); 0.05 wt %): 56.16%
Collagenase (MMP-1)(pg/mL) (collagenase (MMP-1); 0.10 wt % in serum-free medium): 443.0 pg/mL
MMP-1 content relative to untreated control (%) (collagenase (MMP-1); 0.10 wt %): 63.45%
Collagenase (MMP-1)(pg/mL) (collagenase (MMP-1); 0.50 wt % in serum-free medium): 327.7 pg/mL
MMP-1 content relative to untreated control (%) (collagenase (MMP-1); 0.50 wt %): 50.73%
Collagenase (MMP-1)(pg/mL) (collagenase (MMP-1); 1.00 wt % in serum-free medium): 159.1 pg/mL
MMP-1 content relative to untreated control (%) (collagenase (MMP-1); 1.00 wt %): 27.29%
restraining effects of collagenase (collagenase (MMP-1)): markedly increased
production of collagenase (collagenase (MMP-1); concentration of 1 wt %): markedly reduced

C[C@H](O)[C@@H](C)O [2R,3S-butanediol]
Anti-oxidation ratio (%) ([1]; 0.1 wt % in methanol): 2.23%
Anti-oxidation ratio (%) ([1]; 0.5 wt % in methanol): 3.95%
change of anti-oxidation ratio with the increase of the concentration [1]: increased
Collagenase (MMP-1)(pg/mL) (collagenase (MMP-1); 0.05 wt % in serum-free medium): 370.2 pg/mL
MMP-1 content relative to untreated control (%) (collagenase (MMP-1); 0.05 wt %): 60.78%
Collagenase (MMP-1)(pg/mL) (collagenase (MMP-1); 0.10 wt % in serum-free medium): 364.7 pg/mL
MMP-1 content relative to untreated control (%) (collagenase (MMP-1); 0.10 wt %): 59.80%
Collagenase (MMP-1)(pg/mL) (collagenase (MMP-1); 0.50 wt % in serum-free medium): 324.2 pg/mL
MMP-1 content relative to untreated control (%) (collagenase (MMP-1); 0.50 wt %): 56.69%
Collagenase (MMP-1)(pg/mL) (collagenase (MMP-1); 1.00 wt % in serum-free medium): 321.4 pg/mL
MMP-1 content relative to untreated control (%) (collagenase (MMP-1); 1.00 wt %): 62.63%
restraining effects of collagenase (collagenase (MMP-1)): markedly increased
